In ChEMBL document CHEMBL3758159, “Polycyclic amines as chloroquine resistance modulating agents in Plasmodium falciparum” (Bioorg Med Chem Lett, 2016):
The source made the active and inactive calls. The rule behind the calls is not given here.

What was measured:
[1] = test system: CHO; assay: Cytotoxicity against CHO cells by MTT assay; format: cell-based; conditions: Cricetulus griseus
[2] = test system: Plasmodium falciparum Dd2; assay: Inhibition of voltage-gated calcium channel in Plasmodium flaciparum Dd2 cells assessed as potentiation of choloroquine induced antimalarial activity by measuring ratio of chloroquine IC50 in presence to absence of compound at 1 uM
[3] = test system: Plasmodium falciparum Dd2; assay: Inhibition of voltage-gated calcium channel in Plasmodium flaciparum Dd2 cells assessed as reversal of choloroquine resistance at 1 uM relative to control; set-up: scale not given: the % may be the effect or the level left
[4] = test system: Plasmodium falciparum; assay: Antiplasmodial activity against chloroquine sensitive Plasmodium falciparum NF54 by spectroscopic method; format: functional, organism-based
[5] = Selectivity index, ratio of IC50 for CHO cells to IC50 for chloroquine sensitive Plasmodium falciparum NF54; format: toxicity, cell-based; conditions: hamster, read-out: Ratio IC50
[6] = test system: Plasmodium falciparum; assay: Antiplasmodial activity against multidrug resistant Plasmodium falciparum Dd2 by spectroscopic method; format: functional, organism-based
[7] = test system: Plasmodium falciparum NF54; assay: Inhibition of voltage-gated calcium channel in Plasmodium flaciparum NF54 cells assessed as potentiation of choloroquine induced antimalarial activity by measuring chloroquine IC50 in presence of compound at 1 uM
[8] = Inhibition of voltage-gated calcium channel in Wistar rat synaptoneurosomes after 30 mins by fluorescent ratiometric indicator method
[9] = species: Rattus norvegicus; assay: Inhibition of voltage-gated calcium channel in Wistar rat synaptoneurosomes at 100 uM after 30 mins by fluorescent ratiometric indicator method
[10] = test system: Plasmodium falciparum Dd2; assay: Inhibition of voltage-gated calcium channel in Plasmodium flaciparum Dd2 cells assessed as reversal of choloroquine resistance at 0.8 uM relative to control; set-up: scale not given: the % may be the effect or the level left
[11] = test system: Plasmodium falciparum Dd2; assay: Inhibition of voltage-gated calcium channel in Plasmodium flaciparum Dd2 cells assessed as reversal of choloroquine resistance at 0.5 uM relative to control; set-up: scale not given: the % may be the effect or the level left

Row | SMILES | IC50 [1] [µM] | Ratio IC50 [2] | Activity [3] [%] | IC50 [4] [µM] | selectivity ratio [5] | IC50 [6] [µM] | Activity [7] | IC50 [8] [µM] | inhibition [9] [%] | Activity [10] [%] | Activity [11] [%]
1 | O=C(OCCNC12OC3C4C5CC(C6C5C3C61)C42)c1cccc(/C=C/[N+](=O)[O-])c1 (stereo unspecified) | > 254 | 0.55 | 45 | 26.2 | > 9.7 | 34.5 | inactive | 0.98 | > 95 |  | 
2 | N#Cc1c2ccccc2cn1CCCNC12CC3CC(CC(C3)C1)C2 | 8.2 | 0.58 | 42 | 3.83 | 2.1 | 3.89 | inactive | 100 | 54 |  | 
3 | CN(C)c1cccc2cc(S(=O)(=O)NCCN3C4C5C6CC7C8C6C4C8C3(O)C75)ccc12 (stereo unspecified) | 119 | 0.19 | 81 | 3.76 | 31.7 | 6.25 | inactive | 0.48 | > 95 |  | 
4 | CN(C)c1cccc2c(S(=O)(=O)NCCCNC34CC5CC(CC(C5)C3)C4)cccc12 | 7.4 | 0.35 | 65 | 2.83 | 2.6 | 7.01 | inactive | 0.27 | > 95 |  | 
5 | c1ccc(CNC23OC4C5C6CC(C7C6C4C72)C53)cc1 (stereo unspecified) | > 10 |  |  | > 10 |  | > 10 | inactive | 86 | 52 |  | 
6 | OC12C3C4CC5C6C4C1C6C(C53)N2CCN1CCN(Cc2ccccc2)CC1 (stereo unspecified) | > 265 | 0.81 | 19 | 9.09 | > 29.1 | 6.28 | inactive | 100 | 51 |  | 
7 | O=[N+]([O-])c1ccc(NCCCNC23CC4CC(CC(C4)C2)C3)c([N+](=O)[O-])c1 | 8.01 |  |  | 1.13 | 7.1 | 18.8 |  |  | 12 |  | 
8 | COCCOC(=O)C1=C(C)NC(C)=C(C(=O)OC(C)C)C1c1cccc([N+](=O)[O-])c1 (stereo unspecified) [NIMODIPINE] |  |  |  |  |  |  |  | 0.008 |  |  | 
9 | COc1ccc(CNC23CC4CC(CC(C4)C2)C3)cc1 | > 368 |  |  | 39.4 | > 9.4 |  |  |  | 71 |  | 
10 | CCN(CC)CCCC(C)Nc1ccnc2cc(Cl)ccc12 (stereo unspecified) [CHLOROQUINE] | 35.8 |  |  |  |  |  |  |  |  |  | 
11 | O=[N+]([O-])c1ccc(CNC23OC4C5C6CC(C7C6C4C72)C53)cc1 (stereo unspecified) | > 322 | 0.65 | 25 | 0.718 | > 449 | 54.8 | inactive |  | 48 |  | 
12 | OC12C3C4CC5C6C4C1C6C(C53)N2Cc1ccccc1 (stereo unspecified) | 84.8 | 0.36 | 64 | 7.62 | 11.1 | 13.3 | inactive | 35 | > 95 |  | 
13 | c1ccc(CNC23CC4CC(CC(C4)C2)C3)cc1 | > 414 |  |  | 126 | > 3.3 |  |  |  | 40 |  | 
14 | COc1ccc(CCN(C)CCCC(C#N)(c2ccc(OC)c(OC)c2)C(C)C)cc1OC (stereo unspecified) |  | 0.27 | 73 |  |  |  |  |  |  | 63 | 47
15 | O=[N+]([O-])c1ccc(CNC23CC4CC(CC(C4)C2)C3)cc1 | > 349 |  |  | 74 | > 4.7 |  |  |  | 86 |  | 
